Test results published in patent publication US9617216B2, “Antifungal oxodihydropyridinecarbohydrazide derivative” (Daewoong Pharmaceutical Co., Ltd., priority 2013, dated 2017).
≈ marks a conversion by molar mass, not a printed value.

Key:
Aspergillus fumigatus = experiment: In vitro antifungal activity test (MIC), Aspergillus fumigatus; assay type: cell-based; settings: Aspergillus fumigatus; concentration at which growth is inhibited by 50% vs negative control; 35° C., 48 hours, RPMI 1640, alama blue
Description: (§1) The antifungal activities of the compounds of the present invention were evaluated using Candida albicans as yeast fungus, and Aspergillus fumigatus as a filamentous fungus. The above fungi used were all purchased from American Type Culture Collection (ATCC). The strains used in the experiment were inoculated into a Sabouraud dextrose agar medium, and then cultured at 35° C. for a sufficient period of time, e.g., 24 hours for Candida albicans, and about 7 days for Aspergillus fumigatus. As for Candida albicans, about 5 to 7 single colonies were taken from the cultured medium, sufficiently suspended in 1 ml of 0.85% sterile saline solution, and adjusted to have an optical density of 0.095 to 0.107 at 530 nm. A preparation of a strain diluent was diluted in Roswell park memorial institute (RPMI) 1640 medium at a 1:10 ratio, and the resultant was diluted again at a 1:100 ratio to obtain an inoculation preparation for Candida albicans with a concentration of 1.0×10^3 to 5.0×10^3 CFU/mL. As for Aspergillus fumigatus, the cultured Sabouraud dextrose agar was added with 1 mL of 0.2% Tween 20 diluted with 0.85% sterile saline solution, and then the plate was shaken to detach conidium from the plate. The solution collected from the plate surface was transferred into a sterile tube, and placed at room temperature for 5 minutes to deposit heavy substances. The resulting supernatant was transferred into the sterile tube, sufficiently suspended for about 15 seconds, and prepared a strain diluent with a concentration of 0.4×10^6 to 5.0×10^6 CFU/mL using a hemocytometer. The thus prepared strain diluent was diluted in RPMI 1640 medium at a 1:100 ratio to obtain an inoculation preparation for Aspergillus fumigatus. Candida albicans was cultured at 35° C. for 24 hours and Aspergillus fumigatus was cultured at 35° C. for 48 hours, and the concentrations, at which growth is inhibited by 80% or 50% compared to a negative control group, were determined using alama blue color developing reagent. All experiments were repeated twice for each concentration, and the results of antifungal activities (MIC80 MIC50 μg/mL) are shown in Tables 1 to 2.

Candida albicans = experiment: In vitro antifungal activity test (MIC), Candida albicans; assay type: cell-based; settings: Candida albicans; concentration at which growth is inhibited by 80% vs negative control; 35° C., 24 hours, RPMI 1640, alama blue
Description: as §1

Row | MIC50 (Aspergillus fumigatus) | MIC80 (Candida albicans) | SMILES
1 | 1.8 mg/L (≈ 6.09 µM) | 0.06 mg/L (≈ 0.203 µM) | Cn1cc(C(=O)NNc2cccc(F)c2)cc(Cl)c1=O [Example 24, 5-chloro-N′-(3-fluorophenyl)-1-methyl-6-oxo-1,6-dihydropyridine-3-carbohydrazide]
2 | 1 mg/L (≈ 3.2 µM) | 0.06 mg/L (≈ 0.192 µM) | Cn1cc(C(=O)NNc2cccc(Cl)c2)cc(Cl)c1=O [Example 26, 5-chloro-N′-(3-chlorophenyl)-1-methyl-6-oxo-1,6-dihydropyridine-3-carbohydrazide]
3 | 0.7 mg/L (≈ 1.65 µM) | 0.04 mg/L (≈ 0.0943 µM) | O=C(NNc1cc(F)cc(F)c1)c1ccc(=O)n(Cc2ccc(C(F)(F)F)nc2)c1 [Example 53, N′-(3,5-difluorophenyl)-6-oxo-1-((6-(trifluoromethyl)pyridine-3-yl)methyl)-1,6-dihydropyridine-3-carbohydrazide]
4 | 0.1 mg/L (≈ 0.266 µM) | 0.04 mg/L (≈ 0.107 µM) | Cn1cc(C(=O)NNc2ccc(S(=O)(=O)C(F)(F)F)cc2)ccc1=O [Example 10, 1-methyl-6-oxo-N′-(4-((trifluoromethyl)sulfonyl)phenyl)-1,6-dihydropyridine-3-carbohydrazide]
5 | 0.3 mg/L (≈ 0.828 µM) | 0.28 mg/L (≈ 0.773 µM) | O=C(NNc1ccc(F)cc1F)c1ccc(=O)n(Cc2cscn2)c1 [Example 49, N′-(2,4-difluorophenyl)-6-oxo-1-(thiazol-4-ylmethyl)-1,6-dihydropyridine-3-carbohydrazide]
6 | 0.05 mg/L (≈ 0.179 µM) | 0.03 mg/L (≈ 0.107 µM) | Cn1cc(C(=O)NNc2ccc(F)cc2F)ccc1=O [Example 11, N′-(2,4-difluorophenyl)-1-methyl-6-oxo-1,6-dihydropyridine-3-carbohydrazide]
7 | 0.7 mg/L (≈ 1.65 µM) | 0.08 mg/L (≈ 0.189 µM) | O=C(NNc1ccc(F)cc1F)c1ccc(=O)n(Cc2ccc(C(F)(F)F)nc2)c1 [Example 54, N′-(2,4-difluorophenyl)-6-oxo-1-((6-(trifluoromethyl)pyridine-3-yl)methyl)-1,6-dihydropyridine-3-carbohydrazide]
8 | 1 mg/L (≈ 3.11 µM) | 0.25 mg/L (≈ 0.777 µM) | O=C(NNc1ccc(F)cc1)c1c(Cl)cc(=O)n2c1CCC2 [Example 34, 7-chloro-N′-(4-fluorophenyl)-5-oxo-1,2,3,5-tetrahydroindolizine-8-carbohydrazide]
9 | – | 0.46 mg/L (≈ 1.56 µM) | Cn1cc(C(=O)NNc2ccc(F)cc2)c(Cl)cc1=O [Example 23, 4-chloro-N′-(4-fluorophenyl)-1-methyl-6-oxo-1,6-dihydropyridine-3-carbohydrazide]
10 | – | 0.06 mg/L (≈ 0.191 µM) | Cn1cc(C(=O)NNc2ccc(F)c(F)c2)cc(Cl)c1=O [Example 31, 5-chloro-N′-(3,4-difluorophenyl)-1-methyl-6-oxo-1,6-dihydropyridine-3-carbohydrazide]
11 | – | 0.68 mg/L (≈ 1.57 µM) | O=C(Cn1cc(C(=O)NNc2ccc(F)cc2)ccc1=O)c1ccc(C(F)(F)F)cc1 [Example 69, N′-(4-fluorophenyl)-6-oxo-1-(2-oxo-2-(4-(trifluoromethyl)phenyl)ethyl)-1,6-dihydropyridine-3-carbohydrazide]
12 | – | 0.14 mg/L (≈ 0.379 µM) | O=C(NNc1cccc(F)c1)c1ccc(=O)n(CCc2ccccc2F)c1 [Example 59, 1-(2-fluorophenethyl)-N′-(3-fluorophenyl)-6-oxo-1,6-dihydropyridine-3-carbohydrazide]
13 | – | 0.07 mg/L (≈ 0.207 µM) | Cn1cc(C(=O)NNc2cccc(F)c2)cc(-c2ccccn2)c1=O [Example 41, N′-(3-fluorophenyl)-1-methyl-6-oxo-5-(pyridine-2-yl)-1,6-dihydropyridine-3-carbohydrazide]
14 | – | 0.56 mg/L (≈ 1.55 µM) | O=C(NNc1ccc(F)cc1)c1ccc(=O)n(CCN2CCOCC2)c1 [Example 74, N′-(4-fluorophenyl)-1-(2-morpholinoethyl)-6-oxo-1,6-dihydropyridine-3-carbohydrazide]
15 | – | 8.93 mg/L (≈ 25 µM) | O=C1NNc2cc(F)ccc2C(=O)OCC/C=C/Cn2cc1ccc2=O [Example 79, (1^5E,10E)-5^5-fluoro-1^1,1^2-dihydro-7-oxa-3,4-diaza-1(5,1)-pyridina-5(1,2)-benzenacyclododecaphan-10-ene-1^2,2,6-trione]
